Measured values: US6635641B2 (Agouron Pharmaceuticals, Inc., priority 2000, dated 2003)

How the values were obtained:
[1] = tested on: lung cancer cells (line MV522); assay: Cancer cell proliferation (MV522) assay (MTT); format: cell-based; conditions: MV522
Method in brief: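 Proliferation was read by MTT reduction 72 h after compound addition, in a 4-day protocol with no starvation step. Two thousand MV522 cells were seeded in RPMI1640 with 10% FBS and 2 mM glutamine and given 1 day to attach before dosing.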

[2] = molecular target: T1, phosphorylated VEGF-R2Δ50 (FLVK-P) (Homo sapiens, UniProt P35968, DEL940-989/E990V); assay: VEGF-R2 coupled spectrophotometric assay, phosphorylated construct (FLVK-P); format: biochemical
T1 construct: VEGF-R2Δ50 contains residues 806-939 and 990-1171; made in house; host or cells: baculovirus/insect cells
Method in brief: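 Baculovirus-expressed VEGF-R2Δ50 (residues 806-939/990-1171, E990V), optionally autophosphorylated; ADP formation coupled via PK/LDH to NADH oxidation at 340 nm, pH 7.5 Hepes. FLVK-P: 1 mM ATP, 5.1 mM poly(E4Y1), 25 mM MgCl2; FLVK: 3 mM ATP, 20 mM poly(E4Y1), 60 mM MgCl2, 2 mM MnCl2. Ki from activity over compound concentrations.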

[3] = molecular target: T2, FGF-R1 intracellular kinase domain (Homo sapiens, UniProt P11362, C488A/C584S/L457V); assay: FGF-R spectrophotometric assay; format: biochemical; conditions: for Ki: read-out: FGF-P Ki;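 as to all read-outs here: coupled PK/LDH enzyme assay: ADP from kinase phosphoryl transfer drives NADH oxidation, read as absorbance decrease at 340 nm, with 2 mM ATP and poly(E4Y1) substrate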
T2 construct: starting from the endogenous methionine residue 456 to glutamate 766; made in house; host or cells: baculovirus expression system

CDK2/Cyclin A complex = CDK2/Cyclin A complex (Homo sapiens, UniProt P24941); assay: CDK2/Cyclin A assay ([32P]ATP incorporation into Rb fragment); format: biochemical; conditions: read-out: CDK2 percent inhibition
Method: CDK2 was purified using published methodology (Rosenblatt et al., J. Mol. Biol., 230, 1317-1319 (1993)) from insect cells that had been infected with a baculovirus expression vector. Cyclin A was purified from E. coli cells expressing full-length recombinant cyclin A, and a truncated cyclin A construct was generated by limited proteolysis and purified as described previously (Jeffrey et al., Nature, 376, 313-320 (1995)).
Cyclin-dependent kinase activity was measured by quantifying the enzyme-catalyzed, time-dependent incorporation of radioactive phosphate from [^32P]ATP into a recombinant fragment of the retinoblastoma protein. Unless noted otherwise, assays were performed in 96-well plates in a total volume of 50 μL, in the presence of 10 mM HEPES (N-[2-hydroxyethyl]piperazine-N′-[2-ethanesulfonic acid]) (pH 7.4), 10 mM MgCl2, 25 μM adenosine triphosphate (ATP), 1 mg/mL ovalbumin, 5 μg/mL leupeptin, 1 mM dithiothreitol, 10 mM β-glycerophosphate, 0.1 mM sodium vanadate, 1 mM sodium fluoride, 2.5 mM ethylene glycol-bis(β-aminoethyl ether)-N,N,N′N′-tetraacetic acid (EGTA), 2% (v/v) dimethylsulfoxide, and 0.03-0.2 μCi [^32P]ATP. The substrate (0.3-0.5 μg) was purified recombinant retinoblastoma protein fragment (Rb) (residues 386-928 of the native retinoblastoma protein; 62.3 kDa, containing the majority of the phosphorylation sites found in the native 106-kDa protein, as well as a tag of six histidine residues for ease of purification). Reactions were initiated with CDK2 (150 nM CDK2/Cyclin A complex) or CDK4 (50 nM CDK4/Cyclin D3 complex), incubated at 30° C., and terminated after 20 minutes by the addition of ethylenediaminetetraacetic acid (EDTA) to 250 mM. The phosphorylated substrate was then captured on a nitrocellulose membrane using a 96-well filtration manifold, and unincorporated radioactivity was removed by repeated washing with 0.85% phosphoric acid. Radioactivity was quantified by exposing the dried nitrocellulose membranes to a phosphorimager. Apparent Ki values were measured by assaying enzyme activity in the presence of different compound concentrations and subtracting the background radioactivity measured in the absence of enzyme. The kinetic parameters (kcat, Km for ATP) were measured for each enzyme under the usual assay conditions by determining the dependence of initial rates on ATP concentration. The data were fit to an equation for competitive inhibition using Kaleidagraph (Synergy Software), or were fit to an equation for competitive tight-binding inhibition using the software KineTic (BioKin, Ltd.). Measured Ki values for known inhibitors against CDK4 and CDK2 agreed with published IC50 values. […]

CDK4/Cyclin D3 complex = molecular target: T3, CDK4/Cyclin D3 complex (Homo sapiens, UniProt P11802); assay: CDK4/Cyclin D assay ([32P]ATP incorporation into Rb fragment); format: biochemical; conditions: read-out: CDK4 percent inhibition
T3 construct: made in house; host or cells: insect cells co-infected with baculovirus vectors
Method: A complex of human CDK4 and cyclin D3, or a complex of cyclin D1 and a fusion protein of human CDK4 and glutathione-S-transferase (GST-CDK4), was purified using traditional biochemical chromatographic techniques from insect cells that had been co-infected with the corresponding baculovirus expression vectors.
Cyclin-dependent kinase activity was measured by quantifying the enzyme-catalyzed, time-dependent incorporation of radioactive phosphate from [^32P]ATP into a recombinant fragment of the retinoblastoma protein. Unless noted otherwise, assays were performed in 96-well plates in a total volume of 50 μL, in the presence of 10 mM HEPES (N-[2-hydroxyethyl]piperazine-N′-[2-ethanesulfonic acid]) (pH 7.4), 10 mM MgCl2, 25 μM adenosine triphosphate (ATP), 1 mg/mL ovalbumin, 5 μg/mL leupeptin, 1 mM dithiothreitol, 10 mM β-glycerophosphate, 0.1 mM sodium vanadate, 1 mM sodium fluoride, 2.5 mM ethylene glycol-bis(β-aminoethyl ether)-N,N,N′N′-tetraacetic acid (EGTA), 2% (v/v) dimethylsulfoxide, and 0.03-0.2 μCi [^32P]ATP. The substrate (0.3-0.5 μg) was purified recombinant retinoblastoma protein fragment (Rb) (residues 386-928 of the native retinoblastoma protein; 62.3 kDa, containing the majority of the phosphorylation sites found in the native 106-kDa protein, as well as a tag of six histidine residues for ease of purification). Reactions were initiated with CDK2 (150 nM CDK2/Cyclin A complex) or CDK4 (50 nM CDK4/Cyclin D3 complex), incubated at 30° C., and terminated after 20 minutes by the addition of ethylenediaminetetraacetic acid (EDTA) to 250 mM. The phosphorylated substrate was then captured on a nitrocellulose membrane using a 96-well filtration manifold, and unincorporated radioactivity was removed by repeated washing with 0.85% phosphoric acid. Radioactivity was quantified by exposing the dried nitrocellulose membranes to a phosphorimager. Apparent Ki values were measured by assaying enzyme activity in the presence of different compound concentrations and subtracting the background radioactivity measured in the absence of enzyme. The kinetic parameters (kcat, Km for ATP) were measured for each enzyme under the usual assay conditions by determining the dependence of initial rates on ATP concentration. The data were fit to an equation for competitive inhibition using Kaleidagraph (Synergy Software), or were fit to an equation for competitive tight-binding inhibition using the software KineTic (BioKin, Ltd.). Measured Ki values for known inhibitors against CDK4 and CDK2 agreed with published IC50 values. The specific activity of CDK4 was the same whether complexed to full-length cyclin D3 or the truncated Cyclin D3 construct; both complexes also yielded very similar Ki values for selected inhibitors.

T2 sequence (P11362 456-766 L457V/C488A/C584S): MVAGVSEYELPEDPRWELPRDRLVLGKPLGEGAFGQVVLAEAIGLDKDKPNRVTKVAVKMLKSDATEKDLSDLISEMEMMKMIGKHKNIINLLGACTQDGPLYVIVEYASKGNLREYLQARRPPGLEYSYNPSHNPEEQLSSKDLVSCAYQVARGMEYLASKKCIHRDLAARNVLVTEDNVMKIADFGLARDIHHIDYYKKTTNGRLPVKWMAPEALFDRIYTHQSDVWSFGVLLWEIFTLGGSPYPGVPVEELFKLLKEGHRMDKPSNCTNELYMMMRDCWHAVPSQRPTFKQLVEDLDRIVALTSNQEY
T3 sequence (P11802 whole entry, the tested form may be a part): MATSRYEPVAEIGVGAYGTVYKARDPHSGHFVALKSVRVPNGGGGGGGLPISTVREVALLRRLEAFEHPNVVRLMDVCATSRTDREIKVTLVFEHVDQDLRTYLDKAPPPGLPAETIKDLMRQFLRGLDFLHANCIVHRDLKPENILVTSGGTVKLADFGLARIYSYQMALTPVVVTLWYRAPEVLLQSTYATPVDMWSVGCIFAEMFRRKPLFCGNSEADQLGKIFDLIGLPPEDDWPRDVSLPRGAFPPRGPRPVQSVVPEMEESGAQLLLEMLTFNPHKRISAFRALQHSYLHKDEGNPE
T3 sequence (P30281 whole entry partner, the tested form may be a part): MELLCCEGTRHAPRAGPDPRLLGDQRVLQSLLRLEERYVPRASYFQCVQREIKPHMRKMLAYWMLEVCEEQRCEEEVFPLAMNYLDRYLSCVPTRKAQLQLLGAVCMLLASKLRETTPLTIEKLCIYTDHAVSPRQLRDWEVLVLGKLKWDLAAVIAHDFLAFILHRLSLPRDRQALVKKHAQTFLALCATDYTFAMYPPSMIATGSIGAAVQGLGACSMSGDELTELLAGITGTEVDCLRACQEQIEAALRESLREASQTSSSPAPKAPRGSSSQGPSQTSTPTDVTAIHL
T1 sequence (P35968 with tags, fused parts or gaps DEL940-989/E990V limits assumed): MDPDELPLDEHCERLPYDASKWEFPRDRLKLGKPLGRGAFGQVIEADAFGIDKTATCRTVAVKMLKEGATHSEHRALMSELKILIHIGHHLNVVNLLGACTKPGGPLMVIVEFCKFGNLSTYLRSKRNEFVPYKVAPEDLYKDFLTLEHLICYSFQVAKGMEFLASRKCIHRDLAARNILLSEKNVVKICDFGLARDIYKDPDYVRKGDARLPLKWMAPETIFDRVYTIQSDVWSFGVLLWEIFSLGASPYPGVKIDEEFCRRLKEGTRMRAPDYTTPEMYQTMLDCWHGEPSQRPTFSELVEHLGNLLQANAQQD

| IC50 [1] | Ki [2] | Ki [3] | inhibition at 1 µM (CDK2/Cyclin A complex) | inhibition at 1 µM (CDK4/Cyclin D3 complex) | melting point | inhibition at 5 µM ([3]; at 5 μM, read-out: FGF-P percent inhibition) | inhibition at 100 µM (CDK2/Cyclin A complex; @ 100 μM) | inhibition at 100 µM (CDK4/Cyclin D3 complex; @ 100 μM) | inhibition at 1 µM ([3]; @ 1 μM, read-out: FGF-P percent inhibition) | SMILES |
| --- | --- | --- | --- | --- | --- | --- | --- | --- | --- | --- |
| 4.6 µM | 2.19 nM | 26 nM | 12% | 17% | – | – | – | – | – | Cc1cc(NC(=O)c2ccc(F)c(OCc3cncc4ccccc34)c2)ccc1C(C)C [Example K-10, N-(4-Isopropyl-3-methyl-phenyl)-4-fluoro-3-(Isoquinolin-4-yl)methoxy-benzamide] |
| > 10 µM | 2.21 nM | – | – | – | 172 to 174 °C | 36% | 23% | 40% | – | Cc1ccc2cc(NC(=O)c3cccc(SCc4cc(Nc5ccccc5)n[nH]4)c3)ccc2n1 [Example E-1, N-(2-methyl-quinolin-6-yl)-3-[{5-(phenylamino)-2-H-pyrazol-3-yl}methylsulfanyl]benzamide] |
| 5.6 µM | 0.17 nM | 19 nM | – | 16% | – | – | – | – | – | O=C(Nc1ccc(N2CCCC2)c(C(F)(F)F)c1)c1cccc(CCc2cc(Nc3cccnc3)n[nH]2)c1 [Example G-11] |
| > 10 µM | 3.74 nM | – | 18% | 19% | – | – | – | – | 12% | CC(=O)Nc1ccc(COc2cccc(C(=O)Nc3ccc4nc(C)ccc4c3)c2)cn1 [Example N-1, 3-(6-Acetylaminopyridin-3-yl)methoxy-N-(2-methyl-quinolin-6-yl)-benzamide] |
